Data as given in patent publication US5464829A, “Cephalosporin derivatives” (Meiji Seika Kaisha Ltd., priority 1992, dated 1995).
Converted amounts (≈) assume the structure as drawn.

What was measured:
Assay in all cases: Minimum inhibitory concentration (MIC), serial dilution technique
Format in all cases: cell-based
C. freundii GN346/16 = conditions: Citrobacter freundii, 10^6 CFU/ml, 35° C., 18 to 20 hours
Experimental: (§1) Antibacterial activities of the following typical compounds A through E of the present invention represented by formula (I) upon various bacteria were determined by measuring the minimum inhibitory concentrations (MIC) in accordance with the known serial dilution technique. MIC was measured by inoculating 10^6 CFU/ml of each test strain on a Sensitivity Plate Medium N (Nissui Pharmaceutical Co., Ltd.), incubating the plates at 35° C. for 18 to 20 hours and then evaluating the results.

E. cloacae G-0008 = conditions: Enterobacter cloacae, G0008, 10^6 CFU/ml, 35° C., 18 to 20 hours
Experimental: as §1

E. coli NIHJ JC-2 = conditions: Escherichia coli, NIHJJC2, 10^6 CFU/ml, 35° C., 18 to 20 hours
Experimental: as §1

E. hirae ATCC8043 = conditions: Enterococcus hirae, 10^6 CFU/ml, 35° C., 18 to 20 hours
Experimental: as §1

K. pneumoniae PCI602 = conditions: Klebsiella pneumoniae, 10^6 CFU/ml, 35° C., 18 to 20 hours
Experimental: as §1

M. morganii 1510/S-1 = conditions: Morganella morganii, 1510/S1, 10^6 CFU/ml, 35° C., 18 to 20 hours
Experimental: as §1

P. aeruginosa E-2 = conditions: Pseudomonas aeruginosa, E2, 10^6 CFU/ml, 35° C., 18 to 20 hours
Experimental: as §1

P. vulgaris GN76 = conditions: Proteus vulgaris, 10^6 CFU/ml, 35° C., 18 to 20 hours
Experimental: as §1

S. aureus 209P JC-1 = conditions: Staphylococcus aureus, 10^6 CFU/ml, 35° C., 18 to 20 hours
Experimental: as §1

S. epidermidis ATCC14990 = conditions: Staphylococcus epidermidis, 10^6 CFU/ml, 35° C., 18 to 20 hours
Experimental: as §1

S. marcescens No. 1 = conditions: Serratia marcescens, 10^6 CFU/ml, 35° C., 18 to 20 hours
Experimental: as §1

| Structure (SMILES) | MIC (C. freundii GN346/16) [µg/mL] | MIC (E. cloacae G-0008) [µg/mL] | MIC (E. coli NIHJ JC-2) [µg/mL] | MIC (E. hirae ATCC8043) [µg/mL] | MIC (K. pneumoniae PCI602) [µg/mL] | MIC (M. morganii 1510/S-1) [µg/mL] | MIC (P. aeruginosa E-2) [µg/mL] | MIC (P. vulgaris GN76) [µg/mL] | MIC (S. aureus 209P JC-1) [µg/mL] | MIC (S. epidermidis ATCC14990) [µg/mL] | MIC (S. marcescens No. 1) [µg/mL] |
| --- | --- | --- | --- | --- | --- | --- | --- | --- | --- | --- | --- |
| C[C@H](O/N=C(\C(=O)NC1C(=O)N2C(C(=O)[O-])=C(CSc3nc4c[n+](C)ccc4s3)CSC12)c1csc(N)n1)C(=O)O (stereo partly drawn) [E, 7-[(Z)-2-(2-aminothiazol-4-yl)-2-{(S)-1-carboxyethoxyimino}acetamido]-3-(5-methylthiazolo[4,5-c]pyridinium-2-yl)thiomethyl-3-cephem-4-carboxylate] | 0.39 (≈ 0.613 µM) | 0.2 (≈ 0.315 µM) | 0.2 (≈ 0.315 µM) | > 100 | 0.05 (≈ 0.0786 µM) | 0.05 (≈ 0.0786 µM) | 1.56 (≈ 2.45 µM) | < 0.025 | 1.56 (≈ 2.45 µM) | 1.56 (≈ 2.45 µM) | 0.05 (≈ 0.0786 µM) |
| CO/N=C(\C(=O)NC1C(=O)N2C(C(=O)[O-])=C(CSc3nc4c[n+](C)ccc4s3)CSC12)c1csc(N)n1 (stereo not shown) [A, 7-{(Z)-2-(2-aminothiazol-4-yl)-2-methoxyiminoacetamido}-3-(5-methylthiazolo[4,5-c]pyridinium-2-yl)thiomethyl-3-cephem-4-carboxylate] | 0.1 (≈ 0.173 µM) | 0.05 (≈ 0.0866 µM) | 0.05 (≈ 0.0866 µM) | 1.56 (≈ 2.7 µM) | 0.05 (≈ 0.0866 µM) | < 0.025 | 50 (≈ 86.6 µM) | 0.39 (≈ 0.675 µM) | 0.2 (≈ 0.346 µM) | 0.2 (≈ 0.346 µM) | 0.05 (≈ 0.0866 µM) |
| C[n+]1ccc2sc(SCC3=C(C(=O)[O-])N4C(=O)C(NC(=O)/C(=N\OC(C)(C)C(=O)O)c5csc(N)n5)C4SC3)nc2c1 (stereo not shown) [D, 7-{(Z)-2-(2-aminothiazol-4-yl)-2-(1-carboxy-1-methylethoxyimino)acetamido}-3-(5-methylthiazolo[4,5-c]pyridinium-2-yl)thiomethyl-3-cephem-4-carboxylate] | 0.39 (≈ 0.6 µM) | 0.2 (≈ 0.308 µM) | 0.2 (≈ 0.308 µM) | > 100 | 0.2 (≈ 0.308 µM) | 0.05 (≈ 0.077 µM) | 3.13 (≈ 4.82 µM) | 0.1 (≈ 0.154 µM) | 3.13 (≈ 4.82 µM) | 3.13 (≈ 4.82 µM) | 0.05 (≈ 0.077 µM) |
| C[n+]1ccc2sc(SCC3=C(C(=O)[O-])N4C(=O)C(NC(=O)/C(=N\OCC(=O)O)c5csc(N)n5)C4SC3)nc2c1 (stereo not shown) [C, 7-{(Z)-2-(2-aminothiazol-4-yl)-2-carboxymethoxyiminoacetamido}-3-(5-methylthiazolo[4,5-c]pyridinium-2-yl)thiomethyl-3-cephem-4-carboxylate] | 0.2 (≈ 0.322 µM) | 0.05 (≈ 0.0804 µM) | 0.05 (≈ 0.0804 µM) | 100 (≈ 161 µM) | < 0.025 | < 0.025 | 12.5 (≈ 20.1 µM) | < 0.025 | 3.13 (≈ 5.03 µM) | 3.13 (≈ 5.03 µM) | < 0.025 |
| CO/N=C(\C(=O)NC1C(=O)N2C(C(=O)[O-])=C(CSc3nc4c(ccc[n+]4C)s3)CSC12)c1csc(N)n1 (stereo not shown) [B, 7-{(Z)-2-(2-aminothiazol-4-yl)-2-methoxyiminoacetamido}-3-(4-methylthiazolo[4,5-b]pyridinium-2-yl)thiomethyl-3-cephem-4-carboxylate] | 0.1 (≈ 0.173 µM) | 0.2 (≈ 0.346 µM) | 0.1 (≈ 0.173 µM) | 50 (≈ 86.6 µM) | 0.05 (≈ 0.0866 µM) | 0.1 (≈ 0.173 µM) | 25 (≈ 43.3 µM) | 0.2 (≈ 0.346 µM) | 0.2 (≈ 0.346 µM) | 0.2 (≈ 0.346 µM) | 0.2 (≈ 0.346 µM) |
